Assay results as given in paper PMC6117563, “A structurally derived model of subunit‐dependent NMDA receptor function” (The Journal of Physiology, 2018).

How the values were obtained:
GluN1/GluN2A receptors = molecular target: T1, GluN1/GluN2A receptors (Rattus norvegicus, UniProt Q00959); assay: Least squares fitting of kinetic model to macroscopic currents from excised outside‐out patches (1 mM or 3 μM glutamate for 1 s); format: cell-based; conditions: macroscopic fit
T1 construct: expressed in transfected cells; host or cells: HEK 293 cells
Experimental: (§1) Cells were transfected using FuGENE 6 (Roche Diagnostics, Basel, Switzerland) with cDNA encoding green fluorescent protein (GFP), wild type GluN1‐1a (GenBank accession numbers U11418 and U08261; hereafter GluN1), and GluN2A (D13211) and GluN2B (U11419) at a ratio of 5:1:1 (GFP:GluN1:GluN2); total cDNA was 0.2 mg ml^−1. All rat NMDA receptor subunit cDNAs were provided by Drs Heinemann (Salk Institute) and Nakanishi (Kyoto University). After transfection, the HEK cells were incubated for 12–24 h (timed to optimize observation of patches with a single active channel) in media supplemented with D,L‐2‐amino‐5‐phosphonovalerate (DL‐AP‐5) and 7‐chlorokynurenic acid (both at 200 μM) prior to patch clamp recordings.

[1] = system: diheteromeric GluN1/GluN2BC2 receptors; set-up: method as in Hatton & Paoletti, 2005; Hansen et al. 2014; conditions: 3 μM ifenprodil; ref Hatton & Paoletti, 2005; Hansen et al. 2014; cited from earlier work
[2] = molecular target: T2, GluN1/GluN2AC1/GluN2BC2 triheteromeric receptors (Rattus norvegicus, UniProt P35439+Q00959+Q00960, A876H/F846L/G856D/H848F/K857R/M851T/M860L/Q845K/V861L); set-up: method as in Hatton & Paoletti, 2005; Hansen et al. 2014; conditions: 3 μM ifenprodil; ref Hatton & Paoletti, 2005; Hansen et al. 2014; cited from earlier work
T2 construct: expressed in transfected cells; host or cells: HEK 293 cells

[3] = system: GluN2AC1‐P552R/GluN2BC2‐P553R triheteromeric receptors; assay: Whole cell current recordings, ifenprodil block of peak current in transfected HEK cells; format: cell-based, rat; conditions: 3 μM ifenprodil; n = 9
Experimental: as §1
(§2) All GluN2 cDNAs used for whole cell current recordings encoded a fusion protein containing the GluN2A C‐terminal domain fused to coiled‐coil C1 and C2 peptide tags followed by an endoplasmic reticulum (ER) retention signal fused in frame to the C‐terminal. This allowed control of the stoichiometry of GluN2 in surface receptors, as previously described (Hansen et al. 2014). The vector containing GluN1 also independently expressed GFP and was provided by Dr Kasper Hansen (University of Montana). […]

[4] = molecular target: T2, GluN1/GluN2AC1/GluN2BC2 triheteromeric receptors; assay: Whole cell current recordings, ifenprodil block of peak current response to glutamate plus glycine in transfected HEK cells; format: cell-based; conditions: 3 μM ifenprodil
Experimental: as §1, §2

[5] = molecular target: T3, GluN2AC1‐P552R/GluN2BC2 triheteromeric receptors (Rattus norvegicus, UniProt P35439+Q00959+Q00960, A876H/F846L/G856D/H848F/K857R/M851T/M860L/Q845K/V861L); assay: Whole cell current recordings, ifenprodil block of peak current in transfected HEK cells; format: cell-based; conditions: 3 μM ifenprodil; n = 9
T3 construct: expressed in transfected cells; host or cells: HEK 293 cells
Experimental: as §1, §2

[6] = model of Fig. A2 (opening only after all four pre‐gating steps)
[7] = model of Figs 5 and 6, saturating glycine (100 μM), pH 8.0

T1 sequence (Q00959 23-1464, other chains not shown): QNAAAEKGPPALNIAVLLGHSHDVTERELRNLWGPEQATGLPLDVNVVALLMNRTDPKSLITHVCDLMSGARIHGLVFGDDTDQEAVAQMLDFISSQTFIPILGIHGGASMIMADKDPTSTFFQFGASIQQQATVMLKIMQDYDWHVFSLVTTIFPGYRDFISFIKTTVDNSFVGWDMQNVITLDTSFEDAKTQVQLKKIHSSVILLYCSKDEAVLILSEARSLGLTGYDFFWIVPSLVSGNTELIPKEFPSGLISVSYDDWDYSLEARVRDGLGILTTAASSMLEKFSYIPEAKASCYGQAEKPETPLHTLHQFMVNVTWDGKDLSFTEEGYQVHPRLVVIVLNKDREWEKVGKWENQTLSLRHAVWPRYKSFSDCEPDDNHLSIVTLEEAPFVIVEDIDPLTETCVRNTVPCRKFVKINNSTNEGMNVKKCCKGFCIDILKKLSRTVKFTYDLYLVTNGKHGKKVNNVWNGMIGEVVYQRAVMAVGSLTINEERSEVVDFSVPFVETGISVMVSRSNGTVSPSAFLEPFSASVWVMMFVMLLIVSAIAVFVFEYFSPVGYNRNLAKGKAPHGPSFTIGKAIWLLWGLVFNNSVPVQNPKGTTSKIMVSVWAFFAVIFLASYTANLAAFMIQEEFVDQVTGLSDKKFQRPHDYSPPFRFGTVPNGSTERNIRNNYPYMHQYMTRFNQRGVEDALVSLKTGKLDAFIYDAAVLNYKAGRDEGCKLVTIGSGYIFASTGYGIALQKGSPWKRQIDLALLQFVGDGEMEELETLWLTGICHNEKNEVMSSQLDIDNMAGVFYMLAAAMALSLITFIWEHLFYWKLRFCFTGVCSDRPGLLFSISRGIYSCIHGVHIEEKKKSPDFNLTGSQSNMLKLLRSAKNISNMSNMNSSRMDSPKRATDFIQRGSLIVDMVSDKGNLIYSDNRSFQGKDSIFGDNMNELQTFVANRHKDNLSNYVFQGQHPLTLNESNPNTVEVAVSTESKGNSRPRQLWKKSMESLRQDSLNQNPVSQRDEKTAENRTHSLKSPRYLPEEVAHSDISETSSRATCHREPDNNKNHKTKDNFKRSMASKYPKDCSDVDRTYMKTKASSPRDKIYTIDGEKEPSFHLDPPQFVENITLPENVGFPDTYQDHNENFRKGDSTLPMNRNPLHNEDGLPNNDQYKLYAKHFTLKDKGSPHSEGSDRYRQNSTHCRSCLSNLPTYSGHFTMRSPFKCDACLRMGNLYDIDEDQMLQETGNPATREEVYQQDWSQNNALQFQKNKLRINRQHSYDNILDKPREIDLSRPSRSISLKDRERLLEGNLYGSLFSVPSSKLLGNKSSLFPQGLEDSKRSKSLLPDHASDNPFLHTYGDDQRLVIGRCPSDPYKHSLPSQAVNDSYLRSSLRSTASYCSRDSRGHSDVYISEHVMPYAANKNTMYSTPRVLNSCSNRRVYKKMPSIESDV
T2 sequence (Q00960+Q00959 fused with the stated changes, other chains not shown): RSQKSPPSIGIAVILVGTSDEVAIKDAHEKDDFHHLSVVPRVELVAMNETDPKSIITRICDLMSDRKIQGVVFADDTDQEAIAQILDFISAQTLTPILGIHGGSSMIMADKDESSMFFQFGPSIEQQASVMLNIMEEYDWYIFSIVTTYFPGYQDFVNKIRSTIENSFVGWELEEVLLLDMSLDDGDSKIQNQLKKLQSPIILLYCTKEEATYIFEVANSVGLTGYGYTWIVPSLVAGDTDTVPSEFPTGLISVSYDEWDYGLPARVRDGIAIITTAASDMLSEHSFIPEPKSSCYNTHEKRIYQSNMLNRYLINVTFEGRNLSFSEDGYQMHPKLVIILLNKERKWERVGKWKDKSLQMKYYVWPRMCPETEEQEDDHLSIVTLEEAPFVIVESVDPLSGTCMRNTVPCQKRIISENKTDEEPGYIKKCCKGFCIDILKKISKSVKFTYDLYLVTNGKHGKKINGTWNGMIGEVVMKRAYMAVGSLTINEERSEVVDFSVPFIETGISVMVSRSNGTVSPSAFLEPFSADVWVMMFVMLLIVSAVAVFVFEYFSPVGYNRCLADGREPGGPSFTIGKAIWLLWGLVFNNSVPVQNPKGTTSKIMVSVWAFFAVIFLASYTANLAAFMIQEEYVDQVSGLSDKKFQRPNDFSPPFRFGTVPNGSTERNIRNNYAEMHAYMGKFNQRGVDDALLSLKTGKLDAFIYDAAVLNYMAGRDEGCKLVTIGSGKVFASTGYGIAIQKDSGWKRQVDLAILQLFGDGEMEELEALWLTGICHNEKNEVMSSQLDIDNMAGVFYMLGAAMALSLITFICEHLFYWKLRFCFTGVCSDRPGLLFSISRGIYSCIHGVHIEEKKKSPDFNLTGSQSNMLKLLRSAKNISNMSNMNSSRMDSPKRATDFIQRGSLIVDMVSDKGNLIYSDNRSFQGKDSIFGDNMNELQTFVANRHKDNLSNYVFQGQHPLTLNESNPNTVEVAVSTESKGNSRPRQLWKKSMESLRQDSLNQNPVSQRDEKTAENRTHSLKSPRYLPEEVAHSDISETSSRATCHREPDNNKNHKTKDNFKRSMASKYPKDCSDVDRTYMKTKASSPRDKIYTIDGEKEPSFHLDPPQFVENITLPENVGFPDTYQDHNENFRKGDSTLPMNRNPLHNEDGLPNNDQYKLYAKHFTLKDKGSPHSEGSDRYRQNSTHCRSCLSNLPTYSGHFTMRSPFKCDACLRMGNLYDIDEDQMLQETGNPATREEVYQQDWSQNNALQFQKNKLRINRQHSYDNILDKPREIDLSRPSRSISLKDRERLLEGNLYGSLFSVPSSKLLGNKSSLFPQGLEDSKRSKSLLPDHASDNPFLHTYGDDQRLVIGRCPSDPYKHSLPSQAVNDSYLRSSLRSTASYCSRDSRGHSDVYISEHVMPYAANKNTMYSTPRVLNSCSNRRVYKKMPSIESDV
T3 sequence (Q00960+Q00959 fused with the stated changes, other chains not shown): as above

SMILES	glutamate association rate k +A (GluN1/GluN2A receptors; [6])	glutamate dissociation rate k −A (GluN1/GluN2A receptors; [6])	glutamate dissociation rate k −A (GluN1/GluN2A receptors; [7])	microscopic glutamate association rate k +A (GluN1/GluN2A receptors; [7])	expected reduction of peak current [1]	expected reduction of triheteromeric peak current [2]	reduction of peak current [3]	block of the current amplitude [4]	reduction of peak current [5]
N[C@@H](CCC(=O)O)C(=O)O [glutamate]	1.3e+07 M⁻¹ s⁻¹	483 s⁻¹	65 s⁻¹	6.7e+06 M⁻¹ s⁻¹					
CC(C(O)c1ccc(O)cc1)N1CCC(Cc2ccccc2)CC1 (stereo not drawn) [ifenprodil]					~90%	~30%	43 ± 6.1%	38%	58 ± 5.5%
